Test system: Pseudomonas aeruginosa
Experiment: Agar well diffusion assessment of emulsified tobramycin availability (effective tobramycin concentration)
Format: cell-based
Details: aqueous standard solution, 37° C., 24 hours
Protocol: The presence and availability of emulsified tobramycin was quantified via the commonly used agar well diffusion method of measuring antibiotic content. In this method, the surface of LB agar plates is inoculated with 500 μL of mid-log growth Pseudomonas aeruginosa in tryptic soy broth. Similar methods are disclosed in Omri et al. Pulmonary Retention of Free and Liposome-Encapsulated Tobramycin after Intratracheal Administration in Uninfected Rats and Rats Infected with Pseudomonas aeruginosa. Antimicrobial Agents and Chemotherapy. 1994, 38: 1090-1095. […] Following this evaluation, the effects of Vaq and Caq were assessed using emulsions with Cfs=2 mg/mL H2O of FSH-PEG, Vaq=0.5-2.5%, and Caq=40-200 mg/mL. […]
For each formulation evaluated, approximately 10 mL of emulsion was prepared in a 15-mL centrifuge tube and allowed to sit at room temperature without agitation for five minutes before sampling. […] Following incubation, circular inhibition zones produced by tobramycin that had diffused into the agar were imaged and measured. Interpolation from the inhibition zones of aqueous standard solutions was then used to determine effective tobramycin concentrations (i.e., the aqueous tobramycin concentration resulting in an identical inhibition area) for each emulsion evaluated. […] Three separate trials were performed for each emulsion formulation evaluated. […]

With `NC[C@H]1O[C@H](O[C@H]2[C@H](O)[C@@H](O[C@H]3O[C@H](CO)[C@@H](O)[C@H](N)[C@H]3O)[C@H](N)C[C@@H]2N)[C@H](N)C[C@@H]1O` [tobramycin] the “Aqueous tobramycin concentration producing the smallest measurable inhibition zone” value was 5 µg/mL.

From patent publication US10322184B2, “Emulsions for intrapulmonary delivery” (Carnegie Mellon University, priority 2016, dated 2019)
